Laboratory results reported in US20230173018A1, “CASPOFUNGIN DERIVATIVES AND ASSAYS FOR EVALUATING ANTIFUNGAL TREATMENT EFFICACY” (priority 2020, published 2023).
In brackets after ≈: the same amount, converted by molar mass. Read-outs that look alike come from different tables or passages of the source.

Assays:
Assay type in all cases: cell-based
[1] = system: C. albicans CG72; test: microbe, parasite or virus in culture; settings: strain no. 7, CG72, parental CAM, pKE1:GFP-YPT72
From the text: (§1) The antifungal activities of compounds 1a, 1 and 2 (collectively: caspofungin derivatives) were compared to that of caspofungin and CSF-BOD using a panel of 49 C. albicans and C. glabrata strains (Tables 1 and 2). The panel included ATCC strains and clinical isolates as well a collection of caspofungin-responsive strains and their corresponding isogenic caspofungin-resistant derivatives, constructed by introducing point mutations within and near the defined hotspots in the FKS1 and/or FKS2 genes of the GS complex. Minimal inhibitory concentration (MIC) values for all strains were determined using the broth double dilution method and are summarized in FIG. 2 and Table 2. […] The clinical breakpoints (threshold) for caspofungin-resistance in C. albicans and C. glabrata are 1 μg/mL and 0.5 μg/mL, respectively.

[2] = system: C. albicans DPL1015 (DP-A15); test: microbe, parasite or virus in culture
From the text: as §1

[3] = system: C. albicans DPL1016 (DP-A15-10); test: microbe, parasite or virus in culture
From the text: as §1

[4] = system: C. albicans SN95; test: microbe, parasite or virus in culture; settings: strain no. 8, SN95, parental RM1000
From the text: as §1

[5] = system: C. albicans T-2068 (DP-C42); test: microbe, parasite or virus in culture
From the text: as §1

[6] = system: C. albicans T-2069 (DP-85); test: microbe, parasite or virus in culture
From the text: as §1

[7] = system: C. albicans T-2074 (DP-122); test: microbe, parasite or virus in culture
From the text: as §1

[8] = system: C. albicans T-2076 (DP-194); test: microbe, parasite or virus in culture
From the text: as §1

[9] = system: C. albicans T-2077 (DP-205); test: microbe, parasite or virus in culture
From the text: as §1

[10] = system: C. glabrata CST78; test: microbe, parasite or virus in culture; settings: strain no. 26, C. glabrata CST78
From the text: as §1

[11] = system: C. glabrata DPL1086; test: microbe, parasite or virus in culture
From the text: as §1

[12] = system: C. glabrata T-985 (11-076); test: microbe, parasite or virus in culture; settings: strain no. 49, T-985 (11-076), clinical isolate
From the text: as §1

[13] = system: C. glabrata TGL00054; test: microbe, parasite or virus in culture
From the text: as §1

[14] = system: C. glabrata TGL00056; test: microbe, parasite or virus in culture
From the text: as §1

[15] = system: C. glabrata TGL00065; test: microbe, parasite or virus in culture
From the text: as §1

[16] = system: C. glabrata TGL00091; test: microbe, parasite or virus in culture
From the text: as §1

[17] = system: C. glabrata TGL00107; test: microbe, parasite or virus in culture
From the text: as §1

[18] = system: C. glabrata TGL00253; test: microbe, parasite or virus in culture
From the text: as §1

[19] = system: C. glabrata TGL00256; test: microbe, parasite or virus in culture
From the text: as §1

[20] = system: C. glabrata TGL00258; test: microbe, parasite or virus in culture
From the text: as §1

[21] = system: C. glabrata TGL00263; test: microbe, parasite or virus in culture
From the text: as §1

[22] = system: C. glabrata TGL00264; test: microbe, parasite or virus in culture
From the text: as §1

[23] = system: C. glabrata TGL00265; test: microbe, parasite or virus in culture
From the text: as §1

[24] = system: C. glabrata TGL00275; test: microbe, parasite or virus in culture
From the text: as §1

[25] = system: C. glabrata TGL00277; test: microbe, parasite or virus in culture
From the text: as §1

[26] = system: C. glabrata TGL00291; test: microbe, parasite or virus in culture
From the text: as §1

[27] = system: C. glabrata TGL00293; test: microbe, parasite or virus in culture
From the text: as §1

[28] = system: C. glabrata TGL00294; test: microbe, parasite or virus in culture
From the text: as §1

[29] = system: C. albicans ATCC 10231; test: MIC, broth double dilution
From the text: as §1

[30] = system: C. albicans BWP17; test: MIC, broth double dilution; settings: strain no. 9, BWP17, parental RM1000
From the text: as §1

[31] = system: C. albicans SN152; test: MIC, broth double dilution; settings: strain no. 5, C. albicans SN152
From the text: as §1

[32] = system: C. glabrata ATCC 15126; test: MIC, broth double dilution
From the text: as §1

[33] = system: C. glabrata T-190 (11-304); test: MIC, broth double dilution
From the text: as §1

[34] = system: C. glabrata T-982 (11-181); test: MIC, broth double dilution
From the text: as §1

[35] = Candida albicans, read-out: MIC
[36] = Nakaseomyces glabratus, read-out: MIC

## CC[C@H](C)C[C@H](C)CCCCCCCCC(=O)N[C@H]1C[C@@H](O)[C@@H](NCCN)NC(=O)[C@@H]2[C@@H](O)CCN2C(=O)[C@H]([C@H](O)CCN)NC(=O)[C@H]([C@H](O)[C@@H](O)c2ccc(O)cc2)NC(=O)[C@@H]2C[C@@H](O)CN2C(=O)[C@H]([C@@H](C)O)NC1=O [Caspofungin]
[1]; [35]
  MIC: 0.031 µg/mL (≈ 0.0284 µM)
[2]; Candida albicans, SC5314
  MIC: 4 µg/mL (≈ 3.66 µM)
[3]; Candida albicans, SC5314
  MIC: 16 µg/mL (≈ 14.6 µM)
[4]; [35]
  MIC: 0.063 µg/mL (≈ 0.0576 µM)
[5]; Candida albicans, SC5314
  MIC: 16 µg/mL (≈ 14.6 µM)
[6]; Candida albicans
  MIC: 16 µg/mL (≈ 14.6 µM)
[7]; Candida albicans
  MIC: 1 µg/mL (≈ 0.915 µM)
[8]; Candida albicans
  MIC: 2 µg/mL (≈ 1.83 µM)
[9]; Candida albicans
  MIC: > 64 µg/mL
[10]; [36]
  MIC: 0.125 µg/mL (≈ 0.114 µM)
[11]; Nakaseomyces glabratus, ATCC90030
  MIC: 2 µg/mL (≈ 1.83 µM)
[12]; [36]
  MIC: 0.125 µg/mL (≈ 0.114 µM)
[13]; Nakaseomyces glabratus, TGL00054
  MIC: > 64 µg/mL
[14]; Nakaseomyces glabratus, TGL00056
  MIC: > 64 µg/mL
[15]; Nakaseomyces glabratus, TGL00065
  MIC: > 64 µg/mL
[16]; Nakaseomyces glabratus, TGL00091
  MIC: > 64 µg/mL
[17]; Nakaseomyces glabratus, TGL00107
  MIC: > 64 µg/mL
[18]; Nakaseomyces glabratus, TGL00253
  MIC: > 64 µg/mL
[19]; Nakaseomyces glabratus, TGL00256
  MIC: 1 µg/mL (≈ 0.915 µM)
[20]; Nakaseomyces glabratus, TGL00258
  MIC: > 64 µg/mL
[21]; Nakaseomyces glabratus, TGL00263
  MIC: 8 µg/mL (≈ 7.32 µM)
[22]; Nakaseomyces glabratus, TGL00264
  MIC: 2 µg/mL (≈ 1.83 µM)
[23]; Nakaseomyces glabratus, TGL00265
  MIC: > 64 µg/mL
[24]; Nakaseomyces glabratus, TGL00275
  MIC: 8 µg/mL (≈ 7.32 µM)
[25]; Nakaseomyces glabratus, TGL00277
  MIC: > 64 µg/mL
[26]; Nakaseomyces glabratus, TGL00291
  MIC: > 64 µg/mL
[27]; Nakaseomyces glabratus, TGL00293
  MIC: > 64 µg/mL
[28]; Nakaseomyces glabratus, TGL00294
  MIC: 16 µg/mL (≈ 14.6 µM)
[29]; Candida albicans, ATCC10231
  MIC: 0.125 µg/mL (≈ 0.114 µM)
[30]; [35]
  MIC: 0.031 µg/mL (≈ 0.0284 µM)
[31]; [35]
  MIC: 0.031 µg/mL (≈ 0.0284 µM)
[32]; Nakaseomyces glabratus, ATCC15126
  MIC: 0.125 µg/mL (≈ 0.114 µM)
[33]; Nakaseomyces glabratus
  MIC: 0.063 µg/mL (≈ 0.0576 µM)
[34]; Nakaseomyces glabratus
  MIC: 0.063 µg/mL (≈ 0.0576 µM)

## CC[C@H](C)C[C@H](C)CCCCCCCCC(=O)N[C@H]1C[C@@H](O)[C@@H](NCCN)NC(=O)[C@@H]2[C@@H](O)CCN2C(=O)[C@H]([C@H](O)CCN)NC(=O)[C@H]([C@H](O)[C@@H](O)c2ccc(OCc3cn(CCCNC(=O)c4ccc(-c5c6ccc(=[N+](C)C)cc-6oc6cc(N(C)C)ccc56)c(C(=O)[O-])c4)nn3)cc2)NC(=O)[C@@H]2C[C@@H](O)CN2C(=O)[C@H]([C@@H](C)O)NC1=O [Compound 1]
[1]
  MIC: 0.5 µg/mL (≈ 0.304 µM)
[2]; strain no. 2, DPL1015 (DP-A15), parental SC5314, FKS1 mutant HS1-S645S/P
  MIC: 16 µg/mL (≈ 9.73 µM)
[3]; strain no. 3, DPL1016 (DP-A15-10), parental SC5314, FKS1 mutant HS1-S645P
  MIC: 64 µg/mL (≈ 38.9 µM)
[4]
  MIC: 0.5 µg/mL (≈ 0.304 µM)
[5]; strain no. 4, T-2068 (DP-C42), parental SC5314, FKS1 HS1-F641S mutation
  MIC: 64 µg/mL (≈ 38.9 µM)
[6]; strain no. 14, T-2069 (DP-85), clinical isolate, FKS1 HS1-S645F mutation
  MIC: 64 µg/mL (≈ 38.9 µM)
[7]; strain no. 12, T-2074 (DP-122), clinical isolate, FKS1 HS1-P649H mutation
  MIC: 16 µg/mL (≈ 9.73 µM)
[8]; strain no. 13, T-2076 (DP-194), clinical isolate, FKS1 HS1-S645F, HS2-R1361R/H mutation
  MIC: 32 µg/mL (≈ 19.5 µM)
[9]; strain no. 15, T-2077 (DP-205), clinical isolate, FKS1 HS1-S645P mutation
  MIC: >64 µg/mL
[10]
  MIC: 1 µg/mL (≈ 0.608 µM)
[11]; strain no. 17, DPL1086, parental ATCC 90030, FKS1 mutant HS1-S629P
  MIC: 8 µg/mL (≈ 4.87 µM)
[12]
  MIC: 1 µg/mL (≈ 0.608 µM)
[13]; strain no. 19, TGL00054, parental CST109, FKS2 mutant
  MIC: >64 µg/mL
[14]; strain no. 22, TGL00056, parental CST34, FKS mutant
  MIC: >64 µg/mL
[15]; strain no. 27, TGL00065, FKS mutant
  MIC: >64 µg/mL
[16]; strain no. 35, TGL00091, FKS mutant
  MIC: >64 µg/mL
[17]; strain no. 23, TGL00107, parental CST34, FKS mutant
  MIC: >64 µg/mL
[18]; strain no. 20, TGL00253, parental CST109, FKS2 mutant
  MIC: >64 µg/mL
[19]; strain no. 24, TGL00256, parental CST34, FKS mutant
  MIC: 4 µg/mL (≈ 2.43 µM)
[20]; strain no. 25, TGL00258, parental CST34, FKS mutant
  MIC: >64 µg/mL
[21]; strain no. 28, TGL00263, parental CST78, FKS mutant
  MIC: >64 µg/mL
[22]; strain no. 29, TGL00264, parental CST78, FKS mutant
  MIC: >64 µg/mL
[23]; strain no. 30, TGL00265, parental CST78, FKS mutant
  MIC: >64 µg/mL
[24]; strain no. 32, TGL00275, FKS mutant
  MIC: 64 µg/mL (≈ 38.9 µM)
[25]; strain no. 33, TGL00277, parental EF1620, FKS mutant
  MIC: >64 µg/mL
[26]; strain no. 36, TGL00291, parental BG2, FKS mutant
  MIC: >64 µg/mL
[27]; strain no. 37, TGL00293, parental BG2, FKS mutant
  MIC: >64 µg/mL
[28]; strain no. 38, TGL00294, parental BG2, FKS mutant
  MIC: >64 µg/mL
[29]; strain no. 11, C. albicans ATCC 10231
  MIC: 0.5 µg/mL (≈ 0.304 µM)
[30]
  MIC: 0.25 µg/mL (≈ 0.152 µM)
[31]
  MIC: 0.25 µg/mL (≈ 0.152 µM)
[32]; strain no. 41, C. glabrata ATCC 15126
  MIC: 1 µg/mL (≈ 0.608 µM)
[33]; strain no. 42, T-190 (11-304), clinical isolate
  MIC: 0.5 µg/mL (≈ 0.304 µM)
[34]; strain no. 46, T-982 (11-181), clinical isolate
  MIC: 0.5 µg/mL (≈ 0.304 µM)
